# Publication PMC9705338, “The phycoerythrobilin isomerization activity of MpeV in Synechococcus sp. WH8020 is prevented by the presence of a histidine at position 141 within its phycoerythrin-I β-subunit substrate” (Frontiers in Microbiology, 2022)
# Molecular target: T1, WHMpeV (MpeV from WH8020) (Synechococcus sp. WH 8020, UniProt Q02178)
# T1 construct: His-tagged, in pCDF-Duet, co-expressed in E. coli with RS9916 cpeS, cpeZ, ho1/pebS and a PE beta-subunit
# T1 sequence (Q02178 1-301): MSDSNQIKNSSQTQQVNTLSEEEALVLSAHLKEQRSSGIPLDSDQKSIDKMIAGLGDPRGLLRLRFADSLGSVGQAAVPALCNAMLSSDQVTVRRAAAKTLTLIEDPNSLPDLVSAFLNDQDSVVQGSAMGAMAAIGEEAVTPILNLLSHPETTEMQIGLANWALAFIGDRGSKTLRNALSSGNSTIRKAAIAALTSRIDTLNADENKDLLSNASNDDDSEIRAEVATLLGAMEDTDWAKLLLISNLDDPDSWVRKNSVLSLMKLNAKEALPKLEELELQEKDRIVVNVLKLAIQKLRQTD
# Assay: co-expression in E. coli; absorbance, zinc fluorescence, LC-MS-MS of the product subunit
# Type: cell-based
Compound,"co-expression in E. coli; absorbance, zinc fluorescence, LC-MS-MS of the product (bilin acceptor WHCpeB (ligation without isomerization), RSCpeB or WHMpeB (ligation with isomerization), with RSCpeZ and RSCpeS)","co-expression in E. coli; absorbance, zinc fluorescence, LC-MS-MS of the product (covalent, protein-bound product on RSCpeB, WHMpeB and WHCpeB H141L)"
C=CC1=C(C)C(CC2=NC(=Cc3[nH]c(C=C4NC(=O)C(C)C4=CC)c(C)c3CCC(=O)O)C(CCC(=O)O)=C2C)NC1=O (centres unmarked) [phycoerythrobilin],"WHMpeV acts as a PEB lyase-isomerase, doubly ligating PUB on RSCpeB",
C=CC1=C(C)[C@@H](CC2=N/C(=C\c3[nH]c(C[C@H]4NC(=O)C(C)=C4C=C)c(C)c3CCC(=O)O)C(CCC(=O)O)=C2C)NC1=O [phycourobilin],,WHMpeV is capable of isomerizing activity on both WHMpeB and RSCpeB
